Results as given in patent publication EP4623909A1, “PHARMACEUTICAL COMPOSITION FOR TREATING OR RELIEVING COVID-19 AND FORMULATION COMPRISING SAME” (priority 2022, dated 2024).

Tested on: Delta strain of novel coronavirus
Type: in vivo, K18-hACE2 transgenic mice

For `N#C[C@@]1(c2ccc3c(N)ncnn23)O[C@H](COC(=O)C2CCCCC2)[C@@H](O)[C@H]1O` [ATV014], the “viral load in the lungs (antiviral effect)” value ([…], ATV014 100 mg/kg, Compound 1 150 mg/kg, once daily, intragastric, versus vehicle control) was “significant antiviral effects”, the “anti-novel coronavirus effects in the mouse model” value (conclusion, ATV014 100 mg/kg, Compound 1 150 mg/kg) was “significant anti-novel coronavirus effects” and the “reduction of viral load” value (mouse, in vivo) was “could reduce the viral load to varying degrees”.
